In brackets after ≈: the same amount, converted by molar mass. Read-outs that look alike come from different tables or passages of the source.
Key:
[1] = test system: Staphylococcus epidermidis ATCC 12228; assay: Broth microdilution (CLSI), growth, MIC and MBC; assay type: cell-based; details: for MIC: Staphylococcus epidermidis, ATCC12228, S. epidermidis, 24 h at 37 °C; for MBC/MFC: S. epidermidis (MBC)
[2] = test system: Pseudomonas aeruginosa ATCC 15442; assay: Broth microdilution (CLSI), growth, MIC and MBC; assay type: cell-based; details: for MBC/MFC: P. aeruginosa (MBC); for MIC: Pseudomonas aeruginosa, ATCC15442, P. aeruginosa, 24 h at 37 °C
[3] = test system: Candida albicans ATCC 10231; assay: Broth microdilution (CLSI), growth, MIC and MFC; assay type: cell-based; details: for MBC/MFC: C. albicans (MFC); for MIC / inhibition at 64 µg/mL: Candida albicans; for MIC: ATCC10231, C. albicans, 48 h at 37 °C; for inhibition at 64 µg/mL: ATCC10231, 64 µg/mL (highest tested concentration), read-out: C. albicans growth inhibition
[4] = test system: Staphylococcus aureus ATCC 29213; assay: Broth microdilution (CLSI), growth, MIC and MBC; assay type: cell-based; details: for MIC / inhibition at 16 µg/mL: Staphylococcus aureus; for MIC: ATCC29213, S. aureus, 24 h at 37 °C; for MBC/MFC: S. aureus (MBC); for inhibition at 16 µg/mL: ATCC29213, 16 µg/mL, read-out: inhibition of S. aureus growth
[5] = test system: Aspergillus flavus ATCC 9643; assay: Broth microdilution (CLSI), growth, MIC and MFC; assay type: cell-based; details: for MBC/MFC: A. flavus (MFC); for MIC: Aspergillus flavus, ATCC9643, A. flavus, 48 h at 37 °C
[6] = test system: Escherichia coli ATCC 25922; assay: Broth microdilution (CLSI), growth, MIC and MBC; assay type: cell-based; details: for MBC/MFC: E. coli (MBC); for MIC: Escherichia coli, ATCC25922, E. coli, 24 h at 37 °C; for antimicrobial properties against E. coli, ranking in words: among compounds 1–10
E. coli [7] = test system: E. coli; design: method as in PMID 34884610; details: highest tested concentration; cited from earlier work
S. aureus [8] = test system: S. aureus; design: method as in PMID 34884610; details: cited from earlier work
[9] = test system: human fibroblast BJ ATCC CRL-2522 cell line; assay: Cytotoxic activity, MTT; assay type: cell-based; details: for toxicity to human fibroblasts, ranking in words: among compounds 1–10
Description: The cytotoxic properties of the tested compounds were examined using the human fibroblast BJ ATCC CRL-2522 cell line. The fibroblasts, with a final density of 1 × 10^5 cells per well, were suspended in EMEM medium containing FBS (10%) and antibiotics (penicillin, 100 IU/mL and streptomycin, 100 µg/mL), and incubated in 96-well microplates for 24 h in a humidified atmosphere with 5% CO2 at 37 °C. Next, the EMEM medium was replaced with a fresh medium, with the addition of the tested compounds in the concentration range of 1–64 µg/mL. Cell cultures without the tested derivatives were also prepared, as control samples. All the samples were incubated again for 24 h, under the same conditions. Then, the growth medium was removed from above the fibroblasts, and MTT solution (500 µg/mL) was added to each well. The plates were incubated for 4 h under the same conditions. The MTT solution was removed, and the wells were refilled with 50 µL of DMSO, to dissolve the formazan crystals produced. The spectrophotometric measurement of the samples was carried out at λ = 550 nm, using a SpectraMax i3x Multi-Mode Microplate Reader (Molecular Devices Ltd., Wokingham, UK).
The cell viability was calculated as a percentage of the control samples untreated with the tested compounds with a standard deviation. The experiment with n = 4 was carried out in four independent repetitions.

C. albicans = test system: C. albicans; design: method as in PMID 18570365; details: cited from earlier work
E. coli [10] = test system: E. coli; design: method as in Salih et al. 12; details: ref Salih et al. 12; cited from earlier work
S. aureus [11] = test system: S. aureus; design: method as in Salih et al. 12; details: ref Salih et al. 12; cited from earlier work
A. fumigatus = test system: A. fumigatus; design: method as in PMID 18570365; details: cited from earlier work

SMILES	MIC [1] [µg/mL]	MBC/MFC [2] [µg/mL]	MIC [2] [µg/mL]	MBC/MFC [3] [µg/mL]	MIC [3] [µg/mL]	MIC [4] [µg/mL]	MBC/MFC [5] [µg/mL]	MIC [5] [µg/mL]	MBC/MFC [6] [µg/mL]	MIC [6] [µg/mL]	melting point [°C]	MBC/MFC [1] [µg/mL]	MBC/MFC [4] [µg/mL]	further results
Fc1ccc(CNCCCCOc2cccc3[nH]c4ccccc4c23)cc1 [Compound 3, 4-[4-(4-fluorophenylmethylamino)butoxy]-9H-carbazole]	32 (≈ 88.3 µM)	>64	> 64	>64	> 64	32 (≈ 88.3 µM)	>64	> 64	>64	> 64	–	–	–	antimicrobial properties against E. coli, ranking in words [6]: strongest antimicrobial properties
C[C@@H]1[C@H](O)[C@@H](C)/C=C/C=C/C=C/C=C/C=C/C=C/C=C/[C@H](O[C@@H]2O[C@H](C)[C@@H](O)[C@H](N)[C@@H]2O)C[C@@H]2O[C@](O)(C[C@@H](O)C[C@@H](O)[C@H](O)CC[C@@H](O)C[C@@H](O)CC(=O)O[C@H]1C)C[C@H](O)[C@H]2C(=O)O [Amphotericin B, reference compound]	–	–	–	1 (≈ 1.08 µM)	1 (≈ 1.08 µM)	–	16 (≈ 17.3 µM)	4 (≈ 4.33 µM)	–	–	–	–	–	–
c1ccc(CNCCCCOc2cccc3[nH]c4ccccc4c23)cc1 [parent compound, 4-[4-(benzylamino)butoxy]-9H-carbazole]	–	–	–	–	–	–	–	–	–	–	–	–	–	inhibition of E. coli growth (E. coli [7]): 10%; reduction in bacterial growth (S. aureus) (S. aureus [8]; 20 µg/mL): 22%; MIC (S. aureus [8]; S. aureus): 30 µg/mL (≈ 87.1 µM)
Br.Fc1ccccc1CNCCCCOc1cccc2[nH]c3ccccc3c12 [Compound 6, 4-[4-(2-fluorophenylmethylamino)butoxy]-9H-carbazole hydrobromide]	64	>64	> 64	>64	> 64	64	>64	> 64	>64	> 64	180 to 182	–	–	inhibition at 64 µg/mL [3]: 15%; antimicrobial properties against E. coli, ranking in words [6]: weakest antimicrobial activity
C[C@H](NCCCCOc1cccc2[nH]c3ccccc3c12)c1ccccc1 [Compound 5, (S)-4-[4-(1-phenylethylamino)butoxy]-9H-carbazole]	32 (≈ 89.3 µM)	>64	> 64	>64	> 64	32 (≈ 89.3 µM)	>64	> 64	>64	> 64	–	64 (≈ 179 µM)	64 (≈ 179 µM)	–
Br.C[C@@H](NCCCCOc1cccc2[nH]c3ccccc3c12)c1ccccc1 [Compound 9, (R)-4-[4-(1-phenylethylamino)butoxy]-9H-carbazole hydrobromide]	32	>64	> 64	>64	> 64	32	>64	> 64	>64	> 64	92 to 96	64	64	decrease in cell viability ([9]; 4 µg/mL, human fibroblasts, 24 h): 40%; toxicity to human fibroblasts, ranking in words [9]: highest toxicity
CC1=NN(c2ccccc2)C(=O)C1=NNNC(=O)Cn1c2ccccc2c2ccccc21 [derivative 8, (4-[3-(9H-Carbazol-9-yl-acetyl)triazanylidene]-5-methyl-2-phenyl-2,4-dihydro-3H-pyrazol-3-one)]	–	–	–	–	–	–	–	–	–	–	–	–	–	MIC (C. albicans): 9.6 µg/mL (≈ 22.6 µM); MIC (E. coli [10]): 6.4 µg/mL (≈ 15.1 µM); MIC (S. aureus [11]): 1.1 µg/mL (≈ 2.59 µM); MIC (A. fumigatus): 10.3 µg/mL (≈ 24.3 µM)
Br.Fc1cccc(CNCCCCOc2cccc3[nH]c4ccccc4c23)c1 [Compound 7, 4-[4-(3-fluorophenylmethylamino)butoxy]-9H-carbazole hydrobromide]	32	>64	> 64	>64	> 64	32	>64	> 64	>64	> 64	181 to 183	64	64	–
Br.C[C@H](NCCCCOc1cccc2[nH]c3ccccc3c12)c1ccccc1 [Compound 10, (S)-4-[4-(1-phenylethylamino)butoxy]-9H-carbazole hydrobromide]	32	>64	> 64	>64	> 64	32	>64	> 64	>64	> 64	–	64	64	–
Br.Fc1ccc(CNCCCCOc2cccc3[nH]c4ccccc4c23)cc1 [Compound 8, 4-[4-(4-fluorophenylmethylamino)butoxy]-9H-carbazole hydrobromide]	32	>64	> 64	>64	> 64	32	>64	> 64	>64	> 64	203 to 206	64	64	inhibition at 16 µg/mL [4]: 65%; reduction in E. coli growth ([6]; 64 µg/mL (highest tested concentration)): 50%; antimicrobial properties against E. coli, ranking in words [6]: strongest antimicrobial properties
Fc1ccccc1CNCCCCOc1cccc2[nH]c3ccccc3c12 [Compound 1, 4-[4-(2-fluorophenylmethylamino)butoxy]-9H-carbazole]	64 (≈ 177 µM)	>64	> 64	>64	> 64	64 (≈ 177 µM)	>64	> 64	>64	> 64	179 to 181	–	–	reduction of cell viability ([9]; 32 µg/mL, human fibroblasts, 24 h): about 60%; toxicity to human fibroblasts, ranking in words [9]: least toxic
C[C@@H](NCCCCOc1cccc2[nH]c3ccccc3c12)c1ccccc1 [Compound 4, (R)-4-[4-(1-phenylethylamino)butoxy]-9H-carbazole]	32 (≈ 89.3 µM)	>64	> 64	>64	> 64	32 (≈ 89.3 µM)	>64	> 64	>64	> 64	–	32 (≈ 89.3 µM)	32 (≈ 89.3 µM)	inhibition at 16 µg/mL [4]: > 60%
Fc1cccc(CNCCCCOc2cccc3[nH]c4ccccc4c23)c1 [Compound 2, 4-[4-(3-fluorophenylmethylamino)butoxy]-9H-carbazole]	32 (≈ 88.3 µM)	>64	> 64	>64	> 64	32 (≈ 88.3 µM)	>64	> 64	>64	> 64	–	32 (≈ 88.3 µM)	32 (≈ 88.3 µM)	inhibition at 64 µg/mL [3]: ~60%; inhibition at 16 µg/mL [4]: > 60%

Reference: PMC10530720, “Antimicrobial Activity and Toxicity of Newly Synthesized 4-[4-(benzylamino)butoxy]-9H-carbazole Derivatives” (International Journal of Molecular Sciences, 2023)
